Assays:
[1] = tested on: CD8+ T cells; test: Peptide-HLA-A2 dimer staining of CTL stimulated with peptide-pulsed DC; assay type: cell-based, human; details: for peptide dimer staining relative to background, in words: summary of Table 7
Procedure: (§1) HLA-A2 positive PBMC isolated by leukapheresis from two healthy human subjects were obtained from HemaCare Corporation (Van Nuys, Calif.). The PBMC from each subject were used to prepare CD8+ T cells and autologous dendritic cells for stimulation with immunogenic peptides. Following stimulation, the T cells were subjected to functional assays.
(§2) CD8+ T cells were prepared from each subject's PBMC by positive selection using CD8 MicroBeads (Miltenyi Biotec, Bergisch Gladbach, Germany), according to the manufacturer's instructions.
(§3) Autologous DC were prepared from adherent PBMC (2×10^6 cells/ml) cultured for 5 days in the presence of 500 IU/ml granulocyte macrophage colony-stimulating factor (Leucomax; Schering-Plough, Kenilworth, N.J.) and 500 IU/ml IL-4 (R&D Systems, Minneapolis, Minn.) in complete medium [RPMI 1640 supplemented with 10% heat-inactivated human AB serum, […] L-glutamine (Invitrogen) and antibiotics]. On day 5, DC maturation was induced by addition of 50 ng/ml TNF-α. On day 7, the mature DC were collected and pulsed with 20 μg/ml peptide for 4 hours at 20° C. Peptide-pulsed DC not used immediately were frozen for later use.
The peptide pulsed matured DC were diluted to 3×10^5 cells/mL in CTL complete medium and irradiated at 2800 Rads. The initial in vitro stimulation was performed at a DC:T cell ratio of 1:5 by plating 100 μL/well of each batch of DC into a 96 well round bottom tissue culture plate (3×10^4 DC/well). One plate was prepared per peptide. To all wells, 100 μL of the CD8+ enriched T cell population was added at 1.5×10^6 cells/mL was added, resulting in a final concentration of 1.5×10^5 T-cells/well. Plates were incubated at 37° C., 5% carbon dioxide, and high humidity.
On days 7 and 14, cryopreserved peptide pulsed mature DC were thawed and used to restimulate the T-cells. Cryopreserved samples of each peptide pulsed DC batch were removed from liquid nitrogen and thawed rapidly in a 37° C. water-bath. Samples were diluted at least 1:10 with AIM V medium (Invitrogen, Carlsbard, Calif.). Samples were washed twice by centrifugation at 400 g for 7 minutes, and representative samples were evaluated for cell concentration and viability. Each DC batch was diluted to 3×10^5 cells/mL in CTL complete medium containing 20 U/mL IL-2, 10 ng/mL IL-7, and 2 μg/mL of the specific peptide, and the DC were irradiated with 2800 Rads. In vitro stimulation plates were removed carefully from the incubator and 90 μL of supernatant (no cells) were removed from each well. To each well, 100 μL of the appropriate DC batch was added. Plates were then incubated further at 37° C., 5% carbon dioxide, and high humidity.
After the second in vitro stimulation, the plates were checked daily for T-cell proliferation. When required, plates were split (one plate will become two plates) to avoid overgrowth of the CTL. […] The plates were mixed to ensure a homogenous population, then 90 μL of each CTL well was transferred into a new 96 well U bottomed plate. When splitting was performed within 3 days of the last in vitro stimulation, 100 μL of CTL complete medium containing 20 U/mL IL-2 and 10 ng/mL IL-7 was added. If splitting was performed later than 3 days from the last in vitro stimulation, 100 μL of complete CTL medium containing 40 U/mL IL-2 and 20 ng/mL IL-7 was added. Split plates were returned to the incubator at 37° C., 5% carbon dioxide, and high humidity.
On day 21, the T cells were stimulated a fourth time. The process described for in vitro stimulations 2-3 was repeated with the exception that IL-2 was replaced with 25 ng/mL IL-15.
Stimulated CTL were assayed for staining using peptide-HLA-A2 dimers. Cells were collected 19 days after the third stimulation (subject 1) or 6 days after the fourth stimulation (subjects 1 and 2).

[2] = tested on: CD8+ T cells; test: IFN-γ ELISPOT of CTL stimulated with peptide-pulsed DC; assay type: cell-based, human; parameters: key to ELISPOT IFN-γ spots vs negative control: ++: Wells that clearly had more spots than the negative control were indicated as positive
Procedure: as §1, §2
as §3, with “use. […]” for “use.”
On days 7 and 14, cryopreserved peptide pulsed mature DC were thawed and used to restimulate the T-cells. […] Samples were washed twice by centrifugation at 400 g for 7 minutes, and representative samples were evaluated for cell concentration and viability. […]

[3] = target: HLA-A*0201 (Homo sapiens, UniProt P04439, D140Y/D185E/D98H/E176V/E277Q/G131W/G231S/I119V/I121R/I166T/I218V/L300P/L318F/N151K/N90K/P208A/P217A/Q86G/Q94H/R138H/R169H/T345S); test: REVEAL MHC binding assay, HLA-A*0201; details: HLA-A*0201 binding, relative to positive control peptide
Source text: Fifty-five of the candidate peptides were assembled with HLA-A*0201 and analyzed for MHC binding to determine their level of incorporation into MHC molecules using the REVEAL™ MHC binding assay (ProImmune Ltd., Oxford, UK). Binding to MHC molecules was compared to that of two known T-cell epitopes: an intermediate control peptide and a positive control peptide with weak and very strong binding properties, respectively. Eleven peptides bound to HLA-A*0201 as well or better than the positive control, as indicated on Table 5.

| % Positive Control [3] [%] | Substance | percentages of cells that stained positive (above background) for both dimer and CD8 ([1]; Subject 1, 3rd stim) [%] | percentages of cells that stained positive (above background) for both dimer and CD8 ([1]; Subject 1, 4th stim) [%] | percentages of cells that stained positive (above background) for both dimer and CD8 ([1]; Subject 2, 4th stim) [%] | peptide dimer staining relative to background, in words [1] | ELISPOT IFN-γ spots vs negative control ([2]; Subject 2, 4th stim) | ELISPOT result in words ([2]; subject 3 (so in the source)) |
| --- | --- | --- | --- | --- | --- | --- | --- |
|  | 11 (YLQWIEFSI; listed as Homo sapiens) [compound 11] | 38.64 | 20.74 | 19.39 | stained strongly above background | ++ | clearly positive |
| 163.06 | 19 (SQLNSNPEL; listed as Homo sapiens) [compound 19] |  |  |  |  |  |  |
|  | 20 (GLLERVTRI; listed as Homo sapiens) [compound 20] | 0.27 | −0.41 | −0.32 | indistinguishable from background |  |  |
|  | 21 (FLLPALIFA; listed as Homo sapiens) [compound 21] | 20.43 | 13.23 | 21.18 | stained strongly above background |  |  |
|  | 28 (ILSAFSVYV; listed as Homo sapiens) [compound 28] | 4.15 | 0.12 | 14.08 | stained moderately above background |  |  |

Source: patent US8604167B2, “CD133 epitopes” (ImmunoCellular Therapeutics, Ltd., priority 2009, dated 2013)
